Measured values reported in patent publication US20160030499A1, “Adaptogenic Compositions And Method For Production Thereof” (Rubikon Ltd., priority 2014, published 2016).

Assay: Storage stability of quantitated schisandrin (HPLC)
Assay type: physicochemical
Text: A high performance liquid chromatography (HPLC) method was developed to quantitate the schisandrin compound contained in the Schisandra chinensis extract. Schisandrin (≧98%) obtained from Sigma-Aldrich was used as a control. The content of the schisandrin compound in the Schisandra chinensis seed oil extracts ranged from about 4.2 to 4.9% depending on the extraction for example, prior to standardization.
A High-performance liquid chromatography method has been developed to quantify the schisandrin in the extract:
Chromatographic Conditions: • Column: Agilent Zorbax Eclipse XDB-C 18, 150 mm length and 4.6 mm internal diameter filled with octadecylsilyl silica gel, 5 micron particle size; • Flow rate: 1 ml/min; • Detection at wavelength: 250 nm; • Volume of injection sample: 10 μl; • Column temperature: 25° C.

Q: Which “Storage stability of quantitated amount of schisandrin” value (“Storage stability … of schisandrin” for short) (12 months, 30 degrees Celsius and 65% relative humidity) does the source give for `COc1cc2c(c(OC)c1OC)-c1c(cc(OC)c(OC)c1OC)C[C@](C)(O)[C@@H](C)C2` [schisandrin compound, schisandrin] here?
A: Its value is “stable and unchanged”.

Q: What about the “Storage stability … of schisandrin” value (24 months, 25 degrees Celsius and 60% relative humidity) of the same compound?
A: The value was “stable and unchanged”.

Q: And the “Storage stability in other studies using the formulation tested in Example 1” value (conditions not stated)?
A: Its value is “stable for at least or about one year”.

Q: What about the “Storage stability … of schisandrin” value (six months, 40 degrees Celsius and 75% relative humidity) of the same compound?
A: Its value is “stable and unchanged”.
